This is an account of results in patent US6773702B2, “Use of combretastatin A4 and its prodrugs as an immune enhancing therapy” (OXiGENE, Inc., priority 2000, dated 2004).

Each structure is given as a SMILES string.

Series [1] concerns BN7005-H1D2 colon cancer cells. Kind of series: Tumor growth with IL-18/IFN-γ vaccination plus CA4P and/or L-NAME (FIG. 6). The format is in vivo, rat. Conditions: L-NAME by gavage 48 mg/rat + vaccination with IL-18/IFN-γ producing tumor cells. As to the method:
FIG. 6 illustrates enhancement of the therapeutic effect of vaccination with IL-18/IFN-γ producing tumor transfectant […] cells by concurrent treatment with low dose combretastatin-A4 prodrug and/or L-NAME. Mean tumor volume±SEM is indicated. Significance of differences compared to the PBS control was evaluated by the Student's t test.
Four groups of 6 rats each were inoculated intrahepatically with 1×10^5 wild type colon cancer cells (BN7005-H1D2) on day 0. Drug treatment was initiated on day 7, when the tumor was macroscopically visible as a small nodule, and was repeated 5 days a week. CA4-P was administered i.p. at a dose of 5 mg/kg and L-NAME by gavage at a dose of 48 mg/rat. Vaccination was given twice i.p. on day 10.and 17 with 2×10^6 tumor cells producing IL-18 and IFN-γ, respectively. No drug treatment was given on the day of vaccination and the day after. On day 28 all animals were laparotomized and tumor diameters measured (the longest diameter (a) and the one perpendicular to the first (b) and tumor volume calculated according to the formula 0.4×a×b×b.
Referring to FIG. 6, wild-type (BN7005-H1D2) colon cancer cells were inoculated intrahepatically and combretastatin A4 prodrug treatment began daily on day 7 when the tumors were macroscopically visible. L-NAME, a well known NO inhibitor and effective antitumor agent, was also administered daily. On day 10 and 17 vaccination occurred using BN7005-H1D2 cells transfected with IL-18/IFN-gamma. […] One likely explanation was that both L-NAME and Combretastatin A4 were doing the same thing; i.e. inhibiting the production of proinflammatory cytokines that cause immune suppression.

The test system of series [2] is colon carcinoma H1D2-WT cells. Briefly: Intrahepatic growth of colon carcinoma H1D2-WT, tumor volume after 4 weeks (Table 2). The format is in vivo, rat. To be noted: no CA4-P; L-NAME gavage; with immunization. As to the method: Table 2 is a summary of intrahepatic growth of colon carcinoma H1D2-WT cells treated with low dose CA4P alone or in combination with immunomodulatory gene therapy, and with or without additional inhibitor. Tumor growth was initiated by inoculation beneath the liver capsule with 1×10^5 in vitro cultured BN7005-H1D2 wild type cells suspended in 50 μl RPMI medium. Drug administration (CA4P, L-NAME, Indomethacin) was initiated after 7-8 days when the tumor was macroscopically visible. CA4P was given intraperitoneally, 5 days a week. L-NAME was given by gavage twice a week on the day of immunization and the day after. Indomethacin was given by gavage 48 h after vaccination at a dose of 0.33 mg/kg. Immunization was performed by intraperitoneal administration on day 10 and day 17 using BN7005-H1D2 cells transfected with IL-18 or a mixture of IL-18 and IL-12 transfectants (2-3×10^6 viable cells per rat).
Wild-type (BN7005-H1D2) colon cancer cells (1×10^5 cells) were inoculated intrahepatically and CA4P drug treatment (2 and 5 mg/kg) began daily when the tumors were macroscopically visible. On day 10 and 17, vaccinations were administered intraperitoneally using […] cells transfected with IL-18 transfected cells or mixtures of IL-18 and IL-12 transfected cells (2-3×10^6 viable cells per rat). L-NAME and Indomethacin were also administered by gavage 48 h after vaccination at a dose of 0.33 mg/kg.

Series [3] concerns BN7005-H1D2 colon cancer cells. Kind of series: Comparison of CA4 and CA4P on BN7005-H1D2 tumor growth, alone or with vaccination (FIG. 5). The format is in vivo, rat. As to the method:
FIGS. 5A AND 5B illustrate a comparison of the therapeutic effect of Combretastatin A4 and Combretastatin A4 Prodrug (2 mg/kg) on tumor growth (BN7005-H1D2) in vivo as a sole therapy or in combination with therapeutic vaccination (IL-18 tumor transfectants). Results are represented as mean tumor volume (FIG. 5A) or as median tumor volume (FIG. 5B) 31 days after tumor initiation.
A comparison was also made of relative effect of CA4 and CA4P administration in vivo with regard to tumor inhibitory effects when used as sole therapy and when combined with immunomodulatory gene therapy. […] A subset of these animals were subjected to regular vaccinations autologous IL-18 and IL-12-transfected tumor cells, respectively.
A comparison has been made of the effect of CA4 and CA4 prodrug with regard to tumor inhibitory effects when used as sole therapy and when combined with immunomodulatory gene therapy. As represented in FIG. 5, wild-type (BN7005-H1D2) colon cancer cells were inoculated intrahepatically and treatment with CA4 and CA4P began on day 7 (2 mg/kg 6 days a week), when the tumors were macroscopically visible. On day 9, 16 and 23, vaccinations occurred using BN7005-H1D2 cells transfected with ILI8 and IL-12, respectively.

Series [4] deals with spleen cells of H1D2-WT tumor-bearing rat. Briefly: In vitro proliferative response of spleen cells from a tumor-bearing rat treated with CA4 plus immunotherapy (FIG. 4). The format is in vivo. Conditions: for T cell proliferative response: CA4 2 mg/kg + active immunotherapy. The procedure: FIG. 4 illustrates the enhanced in vitro immune proliferative response (cpm) of spleen cells isolated from (H1D2-WT) a tumor-bearing rat previously treated in vivo with a combination of active immunomodulatory therapy and CA4 (2 mg/kg, 6 days a week). Spleen cells were tested 9 weeks after tumor inoculation when tumor sizes was 0.9 cm^3. LO signifies spleen cells containing adherent macrophages, whereas L1 represents the same population depleted of adherent macrophages. A subset of each cell sample was treated with either medium (Med) or L-NAME (1.5 mg/ml).
While the anti-tumor properties of CA4 and CA4P are very different, the present invention embraces the discovery that a low dose of either compound is capable of enhancing the immune responsiveness of a tumor host. FIG. 4 illustrates the in vitro immune proliferation of spleen cells isolated from a tumor-bearing rat previously subjected to treatment with a combination of CA4 (2 mg/kg) and active immunotherapy. The rat was killed 9 weeks after initiation of intrahepatic tumor growth, at which point the tumor had grown to a size of 0.9 cm^3. Control rats receiving immunotherapy alone were euthanized 5 weeks earlier due to the development of large tumor burdens (>5 cm3).
A tumor-bearing rat (H1D1-WT) was treated in vivo with weekly immunizations of IL-18 transfected tumor cells (H1D1-IL-18), in addition to CA4 treatment (2 mg/kg) 6 days a week. Due to the inherent insolubility of CA4, […] (0.9 cm^3 tumor) following […] of growth, at which point the untreated control rats were all dead with large tumor burdens (>5 cm^3) and would not be expected to show an immune response at such a late stage. Both unseparated spleen cells (L0) and nonadherent spleen cells (L1), depleted of most macrophages by plastic adherence (as in Example 2), were tested for a proliferative response to H1D2-IL18 tumor stimulator cells in the absence or presence of the NO-synthase inhibitor L-NAME.

For series [5] the following is noted: cited from earlier work.

Consider `COC(=O)[C@@H](N)CCCNC(=N)N[N+](=O)[O-]` [L-NAME, reference compound], for which, in series [1], the “Enhancement of immune stimulated gene therapy” value is “effective enhancers of immune stimulated gene therapy”. Also, in series [2], the “Tumor volume after 4 weeks, Mean” value is on record as 1285 mm^3 and the “Tumor volume after 4 weeks, Median” value was 879 mm^3.
`COc1ccc(/C=C\c2cc(OC)c(OC)c(OC)c2)cc1O` [CA4, Combretastatin A4]: the Tumor inhibitory effect entry in series [3] (2 mg/kg 6 days a week as sole therapy) is on record as “no significant effect as sole therapy”; in series [3] (2 mg/kg combined with vaccination (IL-18 and IL-12 transfected tumor cells)), “significant tumor inhibitory effects”. In addition, in series [4] (9 weeks after initiation of intrahepatic tumor growth, CA4 2 mg/kg + active immunotherapy (controls >5 cm3)), the Tumor size is reported as 0.9 cm^3. Further, the “T cell proliferative response” value in series [4] (non-adherent T cells (L1), 9 weeks) is 86,000 cpm; in series [4] (unseparated spleen cells (L0) in the presence of L-NAME in vitro) it was 44,000 cpm; in series [4] (unseparated spleen cells (L0), 9 weeks after tumor initiation), 9000 cpm. In addition, the Solubility in water entry in series [5] is on record as “very limited”.
